The subject of one assay is PC9 cells. In words: RNA-sequencing and gene set enrichment analysis in PC9 cells. In kind it is cell-based. The note with it: 2.5 μM pre-treatment 8 days then 1 μM erlotinib; compared to DMSO pre-treated/erlotinib acutely treated cells. The source says:
For RNA sequencing (RNA-seq) experiments, RNA was submitted to Ocean Ridge Biosciences (Palm Beach Gardens, Fla.) for quality control, library preparation and sequencing. Samples were processed as per the vendor's protocols (http://www.oceanridgebio.com/rna-sequencing.html). Data was processed as previously described (ibid).
Experimental gene lists pre-ranked by differential expression were compared against gene sets in the Molecular Signature Database (MSigDB), v4.0 (http://www.broadinstitute.org/gsea/msigdb/index.jsp). GSEA analyses were run using the weighted scoring option, meandiv normalization, and excluding MSigDB gene sets with more than 1500 or fewer than 15 member genes.
For transcriptomic analysis of PC9 cells, cells were pretreated for 8 days with 2.5 μM CPI-360, with one splitting event and reapplication of fresh drug at day 4. On day 8, without splitting, 0.1% (v/v) DMSO or 1 μM erlotinib was added directly to each vessel, mixed, and incubated for 6 or 24 hours before harvesting. Cells were harvested by aspiration of media, and direct application of buffer RLT to the cell culture plate. RNA was purified as described above.
PC9 cells were pre-treated with 2.5 μM Inhbitor 2 or DMSO for 8 days, with splitting, re-seeding and compound re-fresh at day 4. […] RNA was extracted, and analyzed via RNA-sequencing, then gene set enrichment analysis using msigdb v4.0 (all categories). […]

A further assay has as its system KARPAS-422 cells. In words: Cell viability assay (Cell Titer Glo) in KARPAS-422 cells. In kind it is cell-based. The note with it: EZH2 mutant-containing DLBCL cell line KARPAS-422; viability monitored at day 4, day 8 and day 12. The protocol:
For suspension cell lines, cells were seeded at their pre-determined optimal seeding density in a 96 well dish in a volume of 70-90 μl, depending on the number of compounds under investigation in a single assay (i.e. single agent assay versus combination assay). A 10× stock solution of the highest desired concentration of the compound of interest was made in growth media. In parallel, a solution containing the same % of diluent as the 10× compound concentration was made for each compound under investigation, also in growth media. Compound was diluted serially in the diluent/growth media solution, and 10 μl of 10× drug was added to the relevant wells of the 96 well dish containing cells. […] Cells were cultured in the presence of compound for 4 days, at which point 100 μl growth media was added, cells were triturated, and the cell density of the diluent only control treatment was determined. A split ratio was determined based on this density, such that the new cell density of diluent treated cells after splitting would match the original cell density from day 0. […] 50 μl CTG reagent was added to all wells containing cells that remained in the original 96 well dish, followed by a 30 min incubation on an orbital shaker, before a luminescence reading was obtained on a Perkin-Elmer Envision. […]
In general terms: In ATP-based viability assays light output follows the ATP content of the culture.

[1] abbreviates: pre-treatment 4 days, then 1 μM erlotinib, compared to erlotinib only treated cells.

The structures appear in SMILES notation. Where two headings read alike, the source gives them in different places.

Procedure for PC9 NucRed cells: The non-small cell lung cancer (NSCLC) cell line PC9 was transduced with virus expressing nuclear-restricted RFP (NucRed, Essen Biosciences NucLight), and selected with zeocin (Invivogen). […] Every 3-4 days, media was removed, cells were washed with PBS, and fresh growth media containing 1 μM erlotinib was added. DTPs are defined as cells maintaining red fluorescence, while remaining in a non-proliferative state. After a period of time, DTPs regain proliferative capacity, at which point they are deemed drug tolerant expanded persisters (DTEPs) (ibid). Cells were maintained in 12 well dishes in an Incucyte ZOOM (Essen Biosciences) positioned in a humidified tissue culture incubator for the length of each experiment. Whole well phase and fluorescent images were obtained every 12 hours by the Incucyte ZOOM, and cell number quantified using an automated algorithm defined from a training set of images that identifies red fluorescent signal (positive signal pseudocolored blue in figures). In each experiment, relative cell number is quantitated by dividing cell number at each time point by the initial cell number for each well. In some instances, PC9 NucRed cells were pretreated with EZH2 inhibitors, before counting and reseeding at 5×10^4 cells per well for DTP generation assays as described above.
48 hours later, 1 μM erlotinib was added to the cells, and images were obtained every 12 hours via the Incucyte imaging system. […] FIG. 15c is a schematic of experimental design for FIG. 15d and FIG. 15e PC9 NucRed cells were pre-treated with Inhbitor 1 as in FIG. 15a and FIG. 15b, however after 48 hours, were treated with 0.1% DMSO instead of erlotinib.
Media with fresh compounds was changed every 3-4 days. Phase and fluorescent images obtained every 12 hours with Incucyte imaging platform. Cell number determined by red fluorescent nuclei detection by Incucyte.

Turning to `COc1cc(C)[nH]c(=O)c1CNC(=O)c1c(C)n([C@H](C)C2CCOCC2)c2ccccc12` [Inhibitor 2], the “altered pathways (gene set enrichment analysis)” value with PC9 cells was 3 out of the top 5 altered pathways are interferon-related pathways.
`C#Cc1cccc(Nc2ncnc3cc(OCCOC)c(OCCOC)cc23)c1` [erlotinib, reference compound]: the GI90 dose in the assay with PC9 NucRed cells (PC9 cells) is 1000 nM.
Take `CCS(=O)(=O)N1CCC([C@@H](C)n2c(C)c(C(=O)NCc3c(OC)cc(C)[nH]c3=O)c3ccccc32)CC1` [Inhibitor 1]: the “sensitivity of cell viability to treatment” value with KARPAS-422 cells is given as “temporal sensitivity”. Besides, in the assay with PC9 NucRed cells (5 μM pre-treatment followed by acute 1 μM erlotinib, compared to DMSO pretreatment, acute erlotinib treatment), the “reduction in cell number” value is 80%. Also, the “reduction in cell number” value in the assay on PC9 NucRed cells (5 μM pretreatment for 4 days, then acute DMSO treatment, compared to DMSO pretreated cells) worked out at 15%. Besides, in the assay with PC9 NucRed cells (setting [1]), the “drug tolerant persister (DTP) cells remaining after initial erlotinib treatment” value was “a reduction in the number of drug tolerant persister (DTP) cells”, the “initiation of cell growth inhibition” value is reported as “faster initiation of cell growth inhibition” and the “outgrowth of erlotinib-resistant cells” value is reported as “delayed/reduced outgrowth of erlotinib-resistant cells”.
